The values below are quoted from earlier work in patent EP2266541A1, “Solid pharmaceutical composition comprising rivaroxaban” (Krka Tovarna Zdravil, D.D., Novo Mesto, priority 2009, dated 2010).

The conditions of the series: stated in the background section, no method given.

Take `O=C(NC[C@H]1CN(c2ccc(N3CCOCC3=O)cc2)C(=O)O1)c1ccc(Cl)s1` [Rivaroxaban, 5-chloro-N-{[(5S)-2-oxo-3-[4-(3-oxomorpholin-4-yl)phenyl]oxazolidin-5-yl]methyl}thiophene-2-carboxamide]: the solubility in water entry is “about 7 mg/L”.
